Experimental data reported in article PMC5478869, “New Hydroxycinnamic Acid Esters as Novel 5-Lipoxygenase Inhibitors That Affect Leukotriene Biosynthesis” (Mediators of Inflammation, 2017).
“Also recorded” adds a separate entry of the source.

Columns and labels:
arachidonic acid release = conditions: cited from earlier work
5-LO [1] = biological target: T1, 5-LO (Homo sapiens, UniProt P09917); set-up: endogenous in cells; host or cells: human polymorphonuclear leukocytes (PMNL) isolated from whole blood; method as in PMID 22347509; conditions: cited from earlier work
T1 sequence (P09917 1-674): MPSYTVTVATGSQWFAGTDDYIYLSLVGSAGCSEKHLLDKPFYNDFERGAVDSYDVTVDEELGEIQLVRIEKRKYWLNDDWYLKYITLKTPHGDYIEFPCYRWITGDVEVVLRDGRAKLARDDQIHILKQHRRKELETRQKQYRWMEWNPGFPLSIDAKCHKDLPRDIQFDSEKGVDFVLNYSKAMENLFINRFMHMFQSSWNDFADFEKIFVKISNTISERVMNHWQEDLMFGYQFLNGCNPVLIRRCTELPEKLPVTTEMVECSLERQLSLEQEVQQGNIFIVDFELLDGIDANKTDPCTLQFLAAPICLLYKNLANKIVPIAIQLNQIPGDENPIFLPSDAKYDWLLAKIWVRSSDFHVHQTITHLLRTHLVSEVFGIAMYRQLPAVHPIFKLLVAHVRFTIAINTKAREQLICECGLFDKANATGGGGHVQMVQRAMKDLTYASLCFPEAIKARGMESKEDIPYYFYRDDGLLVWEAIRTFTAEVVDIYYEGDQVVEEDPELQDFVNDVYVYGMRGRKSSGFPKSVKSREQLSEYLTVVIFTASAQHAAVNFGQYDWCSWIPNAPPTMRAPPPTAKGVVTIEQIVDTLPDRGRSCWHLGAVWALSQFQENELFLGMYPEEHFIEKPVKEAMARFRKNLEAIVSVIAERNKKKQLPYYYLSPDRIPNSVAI

5-LO [2] = biological target: T1, 5-LO; test: Biosynthesis of 5-LO products in HEK293 cells expressing 5-LO and FLAP (A23187 + arachidonic acid); format: cell-based; set-up: expressed in transfected cells; host or cells: HEK293; conditions: 1 μM compound, 10 μM A23187 + 10 μM arachidonic acid, 15 min
Procedure: HEK293 cells expressing both 5-LO and the 5-lipoxygenase activating protein (FLAP) were generated as previously reported. For cell stimulation of 5-LO products, transfected HEK293 cells were collected following trypsinization and washed and the cell pellet was resuspended in Hank's balanced salt solution (HBSS, Lonza) containing 1.6 mM CaCl2 at a concentration of 5 × 10^5 cells/ml. Cells were preincubated with each compound at the indicated concentration for 5 min at 37°C. Cells were then stimulated for 15 minutes at 37°C with the addition of 10 μM calcium ionophore A23187 (Sigma-Aldrich) and 10 μM arachidonic acid (Cayman Chemical). Stimulations were stopped by adding 0.5 volume of cold MeOH:MeCN (1 : 1) containing 100 ng/ml of 19-OH prostaglandin B2 (PGB2) as internal standard. Samples were then processed and 5-LO products were analyzed by reversed-phase high-performance liquid chromatography (RP-HPLC) as described previously.
To evaluate CAPE analogues as potential inhibitors of the biosynthesis of 5-LO products, a first series of experiments was performed in HEK293 cells expressing both 5-LO and FLAP as previously described. HEK293 cells were first preincubated with the test compounds (1 μM), then stimulated in the presence of arachidonic acid and calcium ionophore A23187 to induce the biosynthesis of 5-LO products (Figure 2(a)). […] Based on these criteria, compounds 9, 13, 14, 15, 16, and 19 were selected for subsequent analyses.
Figure 2 Effect of the test compounds on the biosynthesis of 5-LO products in transfected HEK293 cells (a) and thapsigargin-stimulated PMNL (b). (a) HEK293 cells expressing both 5-LO and FLAP were incubated in presence of the indicated compounds (1 μM) or their diluent (control, 0.5% DMSO) for 5 min, then biosynthesis of 5-LO products was initiated with the addition of 10 μM calcium ionophore A23187 and 10 μM arachidonic acid for 15 min. After stimulation, reactions were stopped and samples were processed for analysis of 5-LO products by RP-HPLC. Total 5-LO products measured represent the sum of LTB4, its trans isomers, and 5-hydroxyeicosatetraenoic acid. (b) Freshly isolated human PMNL were incubated in presence of test compounds (or their diluent control, DMSO 0.5%) at the indicated concentrations for 5 min. Biosynthesis of the 5-LO products was initiated with the addition of 1 μM of thapsigargin, followed by a 15 min incubation period at 37°C. The stimulation was then stopped and samples were processed for RP-HPLC analysis and total 5-LO products quantification. Total 5-LO products measured represent the sum of LTB4, its trans isomers, 20-COOH- and 20-OH-LTB4 and 5-hydroxyeicosatetraenoic acid. Data are expressed as means ± SEM of at least 3 independent experiments. ^∗Different from control, as determined by one-way ANOVA with Dunnett's multiple comparison test (p < 0.05).

SMILES	Inhibition of liberation of cellular arachidonic acid (previously shown) (arachidonic acid release)	Inhibition of biosynthesis of 5-LO products in whole blood (previous studies) (5-LO [1])	Inhibition of biosynthesis of 5-LO products in transfected HEK293 cells (5-LO [2])
CC(c1cc2ccccc2s1)N(O)C(N)=O (stereo not shown) [Zileuton (1), zileuton, reference compound]	previously shown to inhibit the liberation of cellular arachidonic acid	slightly better inhibitor of the biosynthesis of 5-LO products in whole blood than CAPE (2)	less effective than the selected compounds; also recorded: significantly inhibited the biosynthesis of 5-LO products
CCOC(=O)/C=C/c1ccc(O)c(O)c1 [Compound 4, ethyl caffeate]			without inhibitory activity
O=C(/C=C/c1ccc(O)c(O)c1)OCc1ccccc1 [Compound 11]			not as effective at inhibiting 5-LO as CAPE (2)
O=C(/C=C/c1ccc(O)c(O)c1)Oc1ccccc1 [Compound 10]			not as effective at inhibiting 5-LO as CAPE (2)
COC(=O)/C=C/c1ccc(O)c(O)c1 [Compound 3]			without inhibitory activity
